Results on six molecules are retold here after publication PMC8469748, “A Method for Rapid Screening, Expression, and Purification of Antimicrobial Peptides” (Microorganisms, 2021).

For one assay, the system named is E. coli DH5α. In words: Inhibition zone test (agarose plate, Oxford cup). The format is cell-based. Here is the method:
To measure AMP activity, the agarose plate method was employed. Microorganisms for inhibition testing were activated, 3–5 single colonies were picked and placed in liquid LB medium, cultured on a shaker at 37 °C for 6 h. Solid LB medium was melted by heating, 500 μL of liquid bacterial culture was added for every 100 mL of medium after cooling slightly, and the mixture was poured into a bacterial plate to solidify. Oxford cups were inserted into the solidified mixed bacterial plate, while being careful not to penetrate the medium completely, so as not to affect the penetration of the test liquid on the plate. Attention was paid to the spacing between the Oxford cups. Corresponding Oxford cups were marked and positive/negative controls (100 μL each) were added. Plates were incubated at 37 °C overnight to observe the antibacterial effects.
The E. coli DH5α mixed bacteria plate was prepared as described above. Two negative controls (HRV 3C Cleavage Buffer and 1 M NaCl) and a positive control (2 mg/mL ampicillin) were included.

Another assay has as its system E. coli. Kind of assay: MIC test (96-well plate, OD600). The format is cell-based. The note with it: for inhibition activity against testing microorganisms (MIC test): AMP expressed and purified in E. coli, up to 128 mg/L; for minimum concentration that inhibited an increase in the OD600 of the bacterial solution (MIC): 96-well plate, final 128 to 0.25 mg/L. Here is the method: When measuring the minimum inhibitory concentration (MIC) of the expressed and purified AMPs, we performed the test according to the Clinical and Laboratory Standards Association. Specifically, microorganisms to be tested were activated, and five colonies were picked and separately cultured into liquid medium on a shaker (220 rpm) at 37 °C until the absorbance at 600 nm (OD600) reached 0.13–0.17; thus, corresponding to a biomass concentration of ~1 × 10^8 colony-forming units (CFU)/mL. Samples for testing were diluted to 4 mM, and two-fold serial dilutions were performed in a 96-well plate, with the concentration ranging from 100 to 0.195 μM. Each dilution (50 μL) was performed in duplicate. Next, 50 μL of microbial culture containing ~1 × 10^6 CFU/mL was added to each well. After incubating overnight at 37 °C, OD600 was measured using a microplate spectrophotometer.
Figure 8 The schematic diagram of a 96-well plate measuring MIC (data taken from three parallel experiments). Horizontal direction is AMP 1, 2, 6, 13, 16 test rows; Vertical direction 1–10 is the final concentration of 128 mg/L to 0.25 mg/L of these AMPs, respectively; 11 is the negative control; 12 is a positive control, the 20 mg/L ampicillin.
Figure 13B is a schematic diagram of the 96-well plate MIC experiment (data are from three parallel replicates). The horizontal direction is AMP13 from P. pastoris, the vertical direction is the final peptide concentration (128 mg/L to 0.25 mg/L), 11 is the negative control and 12 is the positive control (20 mg/L ampicillin).

[1] abbreviates: AMP expressed in E. coli and purified, mixed bacteria LB agar plate, Oxford cup, 100 μL liquid per cup, 37 °C overnight.
Setting [2] is: AMP expressed in E. coli, two-fold dilutions, overnight 37 °C, three parallel experiments.

“Also recorded” adds a separate entry of the source.

For “ILPWKWPWWPWRR [AMP2, antimicrobial peptide selected from the AMP library website, expressed as CL7 fusion in E. coli and released by HRV 3C protease]”, the Inhibition zone result with E. coli DH5α (setting [1]) is “no inhibition zones”. Moreover, the “inhibition activity against testing microorganisms (MIC test)” value in the assay with E. coli was “no inhibition activity; also recorded: did not exhibit detectable antibacterial activity”. Moreover, the “minimum concentration that inhibited an increase in the OD600 of the bacterial solution (MIC)” value in the assay with E. coli (setting [2]) was greater than 128 µg/mL.
Taken in the same sequence, the figures for “ITPATPFTPAIITEITAAVIA [AMP1, antimicrobial peptide selected from the AMP library website, expressed as CL7 fusion in E. coli and released by HRV 3C protease]” were “no inhibition zones”, “no inhibition activity; also recorded: did not exhibit detectable antibacterial activity” and 128 µg/mL.
In the case of “DSHAKRHHGYKRKFHEKHHSHRGY [AMP16, antimicrobial peptide selected from the AMP library website, expressed as CL7 fusion in E. coli and released by HRV 3C protease]”, in the assay on E. coli DH5α (setting [1]), the Inhibition zone result is on record as “there was an inhibition zone”. The “minimum concentration that inhibited an increase in the OD600 of the bacterial solution (MIC)” value in the assay on E. coli (setting [2]) stood at 64 µg/mL.
In the case of “VFQFLGKIIHHVGNFVHGFSHVF [AMP6, antimicrobial peptide selected from the AMP library website, expressed as CL7 fusion in E. coli and released by HRV 3C protease]”, in the assay on E. coli DH5α (setting [1]), the Inhibition zone entry is “no inhibition zones”. For the same molecule, in the assay on E. coli, the “inhibition activity against testing microorganisms (MIC test)” value is on record as “no inhibition activity; also recorded: did not exhibit detectable antibacterial activity”. Further, the “minimum concentration that inhibited an increase in the OD600 of the bacterial solution (MIC)” value in the assay on E. coli (setting [2]) was greater than 128 µg/mL.
Consider “GFCRCLCRRGVCRCICTR [AMP13, antimicrobial peptide selected from the AMP library website, expressed as CL7 fusion in E. coli and in P. pastoris, released by HRV 3C protease]”, for which the Inhibition zone result in the assay with E. coli DH5α (AMP13 produced by P. pastoris (PZEAP13), E. coli DH5α mixed bacteria plate, Oxford cup, 100 μL) is reported as “showed inhibition activity; also recorded: clear circle of inhibition”; in the assay on E. coli DH5α (setting [1]), “there was an inhibition zone”. The molecule further had an MIC against E. coli (AMP13 from P. pastoris, equated from 16 mg/L) of 8.1 µM. Moreover, the “minimum concentration that inhibited an increase in the OD600 of the bacterial solution (MIC)” value was 16 µg/mL in the assay on E. coli (AMP13 produced by P. pastoris (PZEAP13), three parallel replicates) and 32 µg/mL in the assay with E. coli (setting [2]). For the same molecule, the “effective MIC” value in the assay with E. coli (AMP13 purified from P. pastoris, discussion) was determined as 16 µg/mL.
For the molecule `CC1(C)S[C@@H]2[C@H](NC(=O)[C@H](N)c3ccccc3)C(=O)N2[C@H]1C(=O)O` [ampicillin, reference compound], the Inhibition zone result in the assay with E. coli DH5α (positive control, 2 mg/mL ampicillin, E. coli DH5α mixed bacteria plate, test of P. pastoris AMP13) was “there was an inhibition zone”; in the assay on E. coli DH5α (positive control, ampicillin 200 mg/L, 100 μL per Oxford cup, plates of E. coli-derived AMPs), “there was an inhibition zone”.

The MIC is the least concentration at which growth counts as inhibited. The low end stands for inhibition by little substance, the high end for a need for much substance.
